The text below walks through data of patent publication US9447028B2, “Therapeutic aryl-amido-aryl compounds and their use” (King's College London, priority 2009, dated 2016).

Bounds are passed on as bounds.

Type in all cases: cell-based
Assay [1] has as its target T1, RARα (Homo sapiens, UniProt P10276).
T1 construct: gal4 (fusion partner); expressed in transfected cells; host or cells: COS-7
T1 sequence (P10276 183-417 limits assumed): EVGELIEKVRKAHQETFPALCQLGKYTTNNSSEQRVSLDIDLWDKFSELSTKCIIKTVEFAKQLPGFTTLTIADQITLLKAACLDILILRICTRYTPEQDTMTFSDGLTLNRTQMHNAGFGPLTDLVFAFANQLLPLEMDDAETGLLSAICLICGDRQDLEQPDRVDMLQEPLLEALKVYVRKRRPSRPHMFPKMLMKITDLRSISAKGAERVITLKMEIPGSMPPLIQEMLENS
In words: Transactivation assay for RAR alpha (gal4-RAR fusion, luciferase reporter, COS-7 cells). The following applies: for RARα/RARβ ratio (*): fold-selectivity for RARα over RARβ; for RARα activity ratio: ratio of test compound EC50 to that of atRA on the same plate. On the procedure:
(§1) Transcriptional transactivation assays were performed with gal4 fusion receptor constructs, created using each of the RAR ligand binding domains, co-transfected with the pFR-luc (Stratagene™) reporter construct in COS-7 cells.
(§2) Briefly, on day 1, 96 well plates were seeded with 8000 cells per well then left to recover overnight. On day 2, the cells were co-transfected with 100 ng of reporter plasmid and 10 ng of the appropriate receptor plasmid per well using lipofectamine (Invitrogen™). On day 3, the lipofectamine containing media was replaced by a DMEM without phenol red, followed by the addition of test compound dissolved in 1 μL of DMSO to each well's 100 μL total volume. Finally, on day 4, the cells were lysed and their luciferase substrate was provided by the BrightGlo™ reagent (Promega™), the plates were then read on the MicroBeta TriLux™ (Perkin Elmer™).
(§3) Where replicate data has been generated, the data are quoted as a ratio of the mean EC50 from the separate experiments.
Background: A reporter such as luciferase makes a cellular process visible.

The target in assay [2] is T2, RARβ (Homo sapiens, UniProt P10826).
T2 construct: gal4 (fusion partner); expressed in transfected cells; host or cells: COS-7
T2 sequence (P10826 183-417 limits assumed): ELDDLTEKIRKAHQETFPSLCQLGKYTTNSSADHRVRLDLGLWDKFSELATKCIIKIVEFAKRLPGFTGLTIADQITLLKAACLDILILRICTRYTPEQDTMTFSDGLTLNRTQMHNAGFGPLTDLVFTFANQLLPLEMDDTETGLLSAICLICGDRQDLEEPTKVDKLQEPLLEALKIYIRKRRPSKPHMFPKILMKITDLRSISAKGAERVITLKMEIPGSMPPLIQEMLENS
In words: Transactivation assay for RAR beta (gal4-RAR fusion, luciferase reporter, COS-7 cells). The settings on record: ratio of test compound EC50 to that of atRA; inactive = no agonist action at the highest concentration tested. On the procedure:
as §1, §2, §3

Assay [3] deals with T3, RARγ (Homo sapiens, UniProt P13631).
T3 construct: gal4 (fusion partner); expressed in transfected cells; host or cells: COS-7
T3 sequence (P13631 185-419 limits assumed): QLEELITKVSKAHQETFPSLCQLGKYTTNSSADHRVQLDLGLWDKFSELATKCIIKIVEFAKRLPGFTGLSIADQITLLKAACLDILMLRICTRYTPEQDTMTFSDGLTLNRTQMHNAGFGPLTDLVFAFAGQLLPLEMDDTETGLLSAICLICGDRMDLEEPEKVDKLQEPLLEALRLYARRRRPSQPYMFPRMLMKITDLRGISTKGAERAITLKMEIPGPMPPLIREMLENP
Put plainly: Transactivation assay for RAR gamma (gal4-RAR fusion, luciferase reporter, COS-7 cells). The following applies: ratio of test compound EC50 to that of atRA; inactive = no agonist action at the highest concentration tested. On the procedure: as §1, §2, §3

Regarding `CCOc1c(Cl)cc(C(=O)Nc2cc(F)c(C(=O)O)c(F)c2)cc1C(F)(F)F` [AAA-022, 4-(3-Chloro-4-ethoxy-5-(trifluoromethyl)benzamido)-2,6-difluorobenzoic acid], the “increase in RARα activity” value in assay [1] (compared with XXX-02) amounted to 5 fold. Further, in assay [1], the “RARα/RARβ ratio (*)” value is on record as above 50 and the RARα activity ratio turned out to be 448. Further, the RARβ activity ratio entry in assay [2] is “inactive”. In addition, in assay [3], the RARγ activity ratio entry is “inactive”.
For `CC(C)Oc1cc(C(=O)Nc2ccc(C(=O)O)c(F)c2)cc(Cl)c1OC(C)C` [AAA-095, 4-(3-Chloro-4,5-diisopropoxybenzamido)-2-fluorobenzoic acid], in assay [1], the “RARα/RARβ ratio (*)” value was determined as 34 and the RARα activity ratio was found to be 2.7. For the same molecule, the RARβ activity ratio in assay [2] is reported as 92. For the same molecule, in assay [3], the RARγ activity ratio is 812.
Taken in the same sequence, the figures for `COc1cc(C(=O)Nc2ccc(C(=O)O)cc2)cc(OC(C)C)c1Cl` [AAA-118, 4-(4-Chloro-3-isopropoxy-5-methoxybenzamido)benzoic acid] were 47, 36, 1700 and 933333.
For `CCOc1c(Cl)cc(C(=O)Nc2ccc(C(=O)O)cc2)cc1OC` [AAA-024, 4-(3-Chloro-4-ethoxy-5-methoxybenzamido)benzoic acid] the same measures were 12.2, 66, 805 and 27200.
For the molecule `O=C(O)c1ccc(NC(=O)c2cc(Cl)c(OC3CCCC3)c(C(F)(F)F)c2)cc1` [AAA-043, 4-(3-Chloro-4-(cyclopentyloxy)-5-(trifluoromethyl)benzamido)benzoic acid], in assay [1], the “RARα/RARβ ratio (*)” value is 27 and the RARα activity ratio is recorded as 2. For the same molecule, the RARβ activity ratio in assay [2] is 53. Besides, the RARγ activity ratio in assay [3] was 688.
In the case of `COc1c(Cl)cc(C(=O)Nc2ccc(C(=O)O)cc2)cc1OCC(C)(C)C` [AAA-105, 4-(3-Chloro-4-methoxy-5-(neopentyloxy)benzamido)benzoic acid], in assay [1], the “RARα/RARβ ratio (*)” value amounted to 13 and the RARα activity ratio worked out at 0.66. For the same molecule, the RARβ activity ratio in assay [2] was determined as 8.4. Besides, in assay [3], the RARγ activity ratio was 941.
Taken in the same sequence, the figures for `CCOc1cc(C(=O)Nc2ccc(C(=O)O)cc2)cc(OC(CC)CC)c1Cl` [AAA-114, 4-(4-Chloro-3-ethoxy-5-(pentan-3-yloxy)benzamido)benzoic acid] were 23, 4.4, 100 and 22759.
Regarding `CCOc1cc(C(=O)Nc2ccc(C(=O)O)cc2)cc(OCC)c1OCC` [AAA-028, 4-(3,4,5-triethoxy-benzoylamino)-benzoic acid], in assay [1], the “RARα/RARβ ratio (*)” value is given as 173.0 and the RARα activity ratio came to 370. In addition, the RARβ activity ratio in assay [2] was found to be 64000. The RARγ activity ratio result in assay [3] is “inactive”.
Turning to `CCOc1c(Br)cc(C(=O)Nc2ccc(C(=O)O)cc2)cc1C(F)(F)F` [AAA-042, 4-(3-Bromo-4-ethoxy-5-(trifluoromethyl)benzamido)benzoic acid], in assay [1], the “RARα/RARβ ratio (*)” value is 68 and the RARα activity ratio amounted to 5.4. The RARβ activity ratio in assay [2] turned out to be 369. In addition, the RARγ activity ratio in assay [3] was found to be 6000.
Taken in the same sequence, the figures for `Cc1cc(NC(=O)c2cc(OC(C)C)c(Cl)c(OC(C)C)c2)ccc1C(=O)O` [AAA-117, 4-(4-Chloro-3,5-diisopropoxybenzamido)-2-methylbenzoic acid] were 68, 4, 273 and 29730.
For `Cc1cc(NC(=O)c2cc(Cl)c(OC(C)C)c(OC(C)C)c2)ccc1C(=O)O` [AAA-051, 4-(3-Chloro-4,5-diisopropoxybenzamido)-2-methylbenzoic acid] the same measures were 45, 0.97, 43 and 2859.
Taken in the same sequence, the figures for `CCOc1c(Cl)cc(C(=O)Nc2ccc(C(=O)O)nc2)cc1Cl` [AAA-026, 5-(3,5-Dichloro-4-ethoxybenzamido)picolinic acid] were 27.3, 180, 4920 and “inactive”.
Regarding `COc1c(Cl)cc(C(=O)Nc2ccc(C(=O)O)cn2)cc1C(F)(F)F` [AAA-065, 6-(3-Chloro-4-methoxy-5-(trifluoromethyl)benzamido)nicotinic acid], in assay [1], the “RARα/RARβ ratio (*)” value is recorded as 9 and the RARα activity ratio stood at 15. Also, the RARβ activity ratio in assay [2] worked out at 140. Also, the RARγ activity ratio in assay [3] was 3521.
As to `Cc1cc(NC(=O)c2cc(Cl)c(Cl)c(OC(C)C)c2)ccc1C(=O)O` [AAA-113, 4-(3,4-Dichloro-5-isopropoxybenzamido)-2-methylbenzoic acid], in assay [1], the “RARα/RARβ ratio (*)” value is on record as 231 and the RARα activity ratio came out at 3.9. Besides, the RARβ activity ratio in assay [2] came to 900. Also, the RARγ activity ratio in assay [3] was 11093.
On to `CCOc1c(Cl)cc(C(=O)Nc2ccc(C(=O)O)cc2)cc1Cl` [AAA-029, 4-(3,5-Dichloro-4-ethoxy-benzoylamino)-benzoic acid], for which, in assay [1] (compared with XXX-03), the “Improvement (RARα activity ratio)” value is ~3.8-fold and the “Improvement (RARα/RARβ ratio)” value is given as ~11-fold. Further, the RARβ activity ratio in assay [2] is on record as 1920. The RARγ activity ratio result in assay [3] was “inactive”.
For `CCOc1c(OC(C)C)cc(C(=O)Nc2ccc(C(=O)O)c(C)c2)cc1OC(C)C` [AAA-061, 4-(4-Ethoxy-3,5-diisopropoxybenzamido)-2-methylbenzoic acid], in assay [1], the “RARα/RARβ ratio (*)” value turned out to be 118 and the RARα activity ratio is on record as 44. The RARβ activity ratio in assay [2] is given as 5200. In addition, the RARγ activity ratio in assay [3] was determined as 1531.
Taken in the same sequence, the figures for `O=C(O)c1ccc(NC(=O)c2cc(Cl)c(OC3CCC3)c(OC3CCC3)c2)cc1` [AAA-092, 4-(3-Chloro-4,5-di(cyclobutyloxy)benzamido)benzoic acid] were 27, 2, 53 and 1059.
Take `CCC(CC)Oc1cc(C(=O)Nc2ccc(C(=O)O)c(F)c2)cc(Cl)c1OC` [AAA-103, 4-(3-Chloro-4-methoxy-5-(pentan-3-yloxy)benzamido)-2-fluorobenzoic acid]: in assay [1], the “RARα/RARβ ratio (*)” value is recorded as 21 and the RARα activity ratio amounted to 2.6. The RARβ activity ratio in assay [2] is 57. For the same molecule, the RARγ activity ratio in assay [3] worked out at 583.
For `CCOc1ccc(C(=O)Nc2ccc(C(=O)O)cc2)cc1C(F)(F)F` [XXX-01, 4-(4-Ethoxy-3-(trifluoromethyl)benzamido)benzoic acid, reference compound] the same measures were 7.9, 327, 2570 and “inactive”.
Taken in the same sequence, the figures for `Cc1cc(NC(=O)c2cc(Cl)c(OC(C)(C)C)c(Cl)c2)ccc1C(=O)O` [AAA-056, 4-(4-tert-Butoxy-3,5-dichlorobenzamido)-2-methylbenzoic acid] were above 250, 3.1, above 770 and 22.
For `Cc1cc(NC(=O)c2cc(Cl)c(OC3CCCC3)c(OC3CCCC3)c2)ccc1C(=O)O` [AAA-046, 4-(3-Chloro-4,5-bis(cyclopentyloxy)benzamido)-2-methylbenzoic acid] the same measures were 43, 2.8, 121 and 698.
`COc1c(Cl)cc(C(=O)Nc2ccc(C(=O)O)cc2)cc1OC1CCC1` [AAA-098, 4-(3-Chloro-5-cyclobutoxy-4-methoxybenzamido)benzoic acid]: in assay [1], the “RARα/RARβ ratio (*)” value worked out at 36 and the RARα activity ratio worked out at 12. Moreover, the RARβ activity ratio in assay [2] turned out to be 433. Further, the RARγ activity ratio in assay [3] stood at 2955.
